{"source": "patent US20240350492A1", "about": "“Methods for the Prevention and Treatment of Hearing Loss” (Ting Therapeutics LLC, priority 2020, published 2024)", "key": {"[1]": {"system": "EGFR downstream signaling pathways (AKT and MAPK)", "assay": "Western blotting of EGFR downstream kinases in organ of Corti after transtympanic injection", "format": "in vivo, mouse", "details": "middle ear trans tympanic injection, 20 mg/ml; P28 FVB mice", "description": "[…]. […] Quarter 2 in the flow plot presents cells that are positive for EGFR. (B) P28 FVB mice were injected transtympanically with DMSO or 20 mg/ml of AG1478. Western blotting was performed on pooled organs of Corti to detect the phosphorylation of EGFR downstream kinases. (C) Zebrafish not injected or injected with 2 ng of scrambled or EGF ligand (EGFL) specific morpholinos (Gene Tools). […]. Quantification of the HCs was performed in SO3, O1 and O2 neuromasts. P<0.0001 versus the corresponding control (One-way ANOVA). […] (D) PCR from scrambled and EGFL morphants.\nNow referring to FIGS. 2A-D, to determine whether functional EGFR is expressed in the adult cochlea, flow cytometry was used to identify epithelial cells that express EGFR protein in the adult cochlea (FIG. 2A). In P28 FVB mice, excluding dead cells and those with autofluorescence, we detected 1140±88 EGFR+; EpCAM+ (an epithelial cell marker) cells from one cochlea (Mean±SEM, n=4)."}, "adult FVB mice": {"system": "adult FVB mice", "assay": "Mouse model of acute noise-induced hearing loss (ABR, DPOAE, synaptic ribbon counts)", "details": "no noise trauma; vs saline + noise and Afatinib + noise groups", "source_text": "Subcutaneous needle electrodes were inserted behind the pinna (inverting), vertex of the skull (non-inverting) and base of the tail (ground). Tone bursts of 5 ms duration with 0.5 ms cosine-squared envelopes delivered at a rate of 21 stimuli per second with alternating polarity were generated using BioSigRZ software and RZ6 multi I/O processor system (Tucker-Davis Technologies, FL). Stimuli were presented as open field via a speaker (MF1; TDT, FL) placed 10 cm in front of the pinna of the animal. […] Stimulus intensity was decreased in 5 dB increments, starting from 100 db SPL to 0 dB SPL. […] Before the start of every session, stimulus presenting speaker (MF1) was calibrated with a ¼″ microphone (PCB-378C10; PCB Piezotronics, NY) that was also placed 10 cm in front of the speaker.\nAnother group of mice were administered saline. […] ABR and DPOAE thresholds were recorded prior, 7 days, or 14 days post noise exposure.\nThese groups of mice were additionally tested for DPOAE threshold."}, "[2]": {"system": "zebrafish neuromast hair cells", "assay": "Zebrafish cisplatin ototoxicity, neuromast hair cell count", "format": "in vivo"}}}
{"smiles": "COc1cc2ncnc(Nc3cccc(Cl)c3)c2cc1OC", "note": "[AG1478]", "values": [{"measurement": "EGFR downstream signaling (AKT and MAPK) in the organ of Corti", "setting": "[1]", "value": "significantly suppressed"}]}
{"smiles": "CN(C)C/C=C/C(=O)Nc1cc2c(Nc3ccc(F)c(Cl)c3)ncnc2cc1O[C@H]1CCOC1", "note": "[Afatinib]", "values": [{"measurement": "DPOAE threshold, Afatinib without noise trauma", "setting": "adult FVB mice", "value": "reduced DPOAE threshold at all f2 frequencies"}]}
{"smiles": "O=C(CCCCCCC(=O)Nc1ccccc1)NO", "note": "[Vorinostat]", "values": [{"measurement": "protection against CIHL", "setting": "[2]; doses of 0.002, 0.0183 and 0.165 μM, 1 hour pre-incubation, then 400 µM cisplatin for 4 hours", "value": "showed protection against CIHL"}, {"measurement": "Cisplatin damage in HCs at SO3 and O1-2 neuromasts", "setting": "[2]; pretreated with various doses", "value": "significantly reduced Cisplatin damage"}]}
